Measurements reported in patent US20250320228A1, “PYRIDO[3,2-D]PYRIMIDINES AS HPK1 INHIBITORS” (Merck Patent GmbH, priority 2022, published 2025).
Counter-ions that a name gives are not always drawn.

What was measured:
[1] = target: full-length human HPK1 (MAP4K1) (Homo sapiens (Human), UniProt Q92918); assay: HPK1 kinase assay (biochemical, ADP-Glo); settings: GST-HPK1 3.2 nM, 10 μM ATP, MBP substrate, ADP-Glo; read-out: HPK1 enzymatic IC50
Description: HPK1 kinase assay (Biochemical assay).
A recombinant fusion protein consisting of full-length human HPK1 (MAP4K1) with an N-terminal Glutatione S-transferase (GST) tag was produced in insect cells Sf21 using the baculovirus expression system. GST-HPK1 protein was purified from cell lysates by glutathione Sepharose affinity chromatography. The assay is run in three continuous steps: 1) the HPK1 enzymatic kinase reaction, 2) an ATP depletion, and 3) the ADP detection, the steps 2 and 3 are performed with ADP-Glo™ Kinase Assay kit from Promega (V9101). Test compounds were prepared by 10-point serial dilution in dimethyl sulfoxide (DMSO) and 100 nL of each dilution was spotted onto a 384-well Optiplate (Perkin Elmer and Cat #6007299) by Labcyte Echo. 5 μL kinase reaction buffer (0.02% Brij-35, 2 mM DTT, 50 mM HEPES pH 7.5, MgCl2 10 mM, BSA 0.01% and β-glycerophosphate 12.5 mM) containing HPK1 (3.2 nM) enzyme was transferred to each well and incubated for 15 minutes at room temperature at 60% humidity. The enzymatic reaction was started by adding 5 μl of Start-Mix (10 μM ATP and 3.235 μM MBP). After 120 minutes, the reaction was stopped by adding 5 μL of ADP-Glo reagent (Promega, V9101) and incubating for 40 min. in the dark at 23° C. To determine the level of ADP, 10 μl ADP-Glo Detection solution was added and incubated for 1 hour at 23° C. in the dark. The plate was transferred to a Perkin Elmer EnVision (2104 Multilabel Reader) for luminescence detection and percent inhibition activity and IC50 value were determined using Genedata Screener.

[2] = system: HPK1 pSLP76 (Ser376); assay: Cellular assay phospho-SLP-76 (Ser376); type: cell-based, human; settings: SLP76 Ser376 phosphorylation after αCD3/αCD28 stimulation; Jurkat (human) or EL-4 (mouse) cells, table does not say which; read-out: HPK1 pSLP76 IC50
Procedure: Cellular Assay—Phospho-SLP-76 (Ser376).
Inhibition of HPK1 enzymatic activity in cells was determined by detection of SLP76 phosphorylation at Ser376 residue in lysate from Jurkat (human) and EL-4 (mouse) cells. Jurkat and EL-4 cells express both HPK1 and SLP76 naturally. All cells were cultured in RPMI 1640 media containing 10% heat inactivated fetal bovine serum (FBS) and 1× Penicillin-Streptomycin. In either Jurkat or El-4 assay, cells were pre-incubated with test compounds prior to T cell stimulation by respective αCD3/αCD28 Dynabeads™. For detection, plates were read on the Envision and percent inhibition and IC50 were determined by Smart fit in Genedata Analyzer.
For Jurkat cells: 35 μL cell suspension were dispensed at a density of 30,000 cells/well in 384-well plates containing HBSS (Gibco, 14025076)+0.1% BSA). 10-point logarithmic serial dilution of test compounds in DMSO were prepared by a Hamilton automated liquid handling robot and 35 nL was transferred into each well by an Echo liquid handler. After 60 min. pre-incubation, the cells were stimulated by adding 5 μL human T activator αCD3/αCD28 Dynabeads™ (Gibco, 11132D) at 1.2×107 beads/ml for 15 minutes at 37° C. Detection of Ser376 phosphorylation status was accomplished by first adding 10 μL of 5× AlphaLISA lysis buffer (Perkin Elmer, ALSU-PSLP-A500) to each well of the cell plate using a Multidrop Combi (5840300), followed by 20 minutes shaking. 10 μL cell lysate from each treatment were then transferred to a white 384-well plate (Corning 3572) and incubated with AlphaLISA acceptor beads for one hour (AlphaLISA SureFire Ultra p-SLP76 (Ser376), Perkin Elmer, ALSU-PSLP-A500), and donor beads for additional 2 hours at room temperature in the dark. […]

full-length human HPK1 (MAP4K1), sequence (Q92918 whole entry): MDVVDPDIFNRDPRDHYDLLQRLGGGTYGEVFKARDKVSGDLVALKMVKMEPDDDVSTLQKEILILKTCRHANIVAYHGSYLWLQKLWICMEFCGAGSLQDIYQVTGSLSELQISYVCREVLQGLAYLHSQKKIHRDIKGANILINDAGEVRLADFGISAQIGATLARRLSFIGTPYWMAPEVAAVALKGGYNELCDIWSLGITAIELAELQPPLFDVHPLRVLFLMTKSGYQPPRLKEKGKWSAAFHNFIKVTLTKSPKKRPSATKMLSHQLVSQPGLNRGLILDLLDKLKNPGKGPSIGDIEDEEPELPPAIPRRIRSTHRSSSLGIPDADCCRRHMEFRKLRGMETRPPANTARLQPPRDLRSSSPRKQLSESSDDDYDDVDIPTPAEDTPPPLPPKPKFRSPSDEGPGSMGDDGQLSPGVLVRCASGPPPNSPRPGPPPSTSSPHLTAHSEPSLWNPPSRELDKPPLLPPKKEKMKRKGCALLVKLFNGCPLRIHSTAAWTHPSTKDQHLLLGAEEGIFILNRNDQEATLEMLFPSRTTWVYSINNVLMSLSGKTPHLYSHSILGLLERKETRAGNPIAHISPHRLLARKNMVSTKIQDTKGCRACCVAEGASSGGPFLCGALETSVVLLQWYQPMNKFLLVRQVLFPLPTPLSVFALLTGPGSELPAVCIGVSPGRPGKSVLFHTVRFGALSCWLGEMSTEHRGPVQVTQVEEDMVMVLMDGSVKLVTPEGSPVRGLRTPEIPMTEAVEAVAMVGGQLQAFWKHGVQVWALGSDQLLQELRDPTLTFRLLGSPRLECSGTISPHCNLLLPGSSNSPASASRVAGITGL

Row | IC50 [1] [nM] | IC50 [2] [nM] | SMILES
1 | < 100 | < 500 | CCn1ncc(-c2cc(C(N)=O)c3ncnc(N[C@@H]4CNC[C@@H](F)C4)c3n2)c1C [Example 8, 6-(1-ethyl-5-methyl-1H-pyrazol-4-yl)-4-(((3S,5S)-5-fluoropiperidin-3-yl)amino)pyrido[3,2-d]pyrimidine-8-carboxamide]
2 | < 100 | < 500 | CCn1cc(-c2cc(C(N)=O)c3ncnc(N[C@@H]4CNC[C@@H](F)C4)c3n2)c(C)n1 [Example 9, 6-(1-ethyl-3-methyl-1H-pyrazol-4-yl)-4-(((3S,5S)-5-fluoropiperidin-3-yl)amino)pyrido[3,2-d]pyrimidine-8-carboxamide]
3 | < 100 | < 500 | CC(C)(O)COc1ccc(-c2cc(C(N)=O)c3ncnc(N[C@@H]4CNC[C@@H](F)C4)c3n2)cc1 [Example 12, 4-(((3S,5S)-5-fluoropiperidin-3-yl)amino)-6-(4-(2-hydroxy-2-methylpropoxy)phenyl)pyrido[3,2-d]pyrimidine-8-carboxamide]
4 | < 100 | < 500 | NC(=O)c1cc(-c2ccc(OCC3(O)CC3)cc2)nc2c(N[C@@H]3CNCCC3(F)F)ncnc12 [Example 16, (R)-4-((4,4-difluoropiperidin-3-yl)amino)-6-(4-((1-hydroxycyclopropyl)methoxy)phenyl)pyrido[3,2-d]pyrimidine-8-carboxamide]
5 | < 100 | 500 to 1000 | NC(=O)c1cc(C2=CCC(N3CCOCC3)CC2)nc2c(N[C@H]3CCCNC3)ncnc12 (stereo partly drawn) [Example 17, 6-(4-morpholinocyclohex-1-en-1-yl)-4-(((S)-piperidin-3-yl)amino)pyrido[3,2-d]pyrimidine-8-carboxamide]
6 | 100 to 1000 | > 1000 | NC(=O)c1cc(-c2ccc(CN3CCOCC3)cc2)nc2c(N[C@@]3(c4ccccc4)CCCNC3)ncnc12 [Example 18]
7 | < 100 | < 500 | COCCOc1ccc(-c2cc(C(N)=O)c3ncnc(N[C@H]4CCCNC4)c3n2)cc1 [Example 24, (S)-6-(4-(2-methoxyethoxy)phenyl)-4-(piperidin-3-ylamino) pyrido[3,2-d]pyrimidine-8-carboxamide]
8 | < 100 | < 500 | C[C@H]1CN(Cc2ccc(-c3cc(C(N)=O)c4ncnc(N[C@H]5CCCNC5)c4n3)cc2)CCO1 [Example 27, 6-(4-[[(2S)-2-methylmorpholin-4-yl]methyl]phenyl)-4-[(3S)-piperidin-3-ylamino]pyrido [3,2-d]pyrimidine-8 carboxamide dihydrochloride]
9 | < 100 | < 500 | NC(=O)c1cc(-c2ccc(C3(N4CCOCC4)CC3)cc2)nc2c(N[C@H]3CCCNC3)ncnc12 [Example 28, 6-[4-[1-(morpholin-4-yl)cyclopropyl]phenyl]-4-[(3S)-piperidin-3-ylamino]pyrido [3,2-d]pyrimidine-8-carboxamide]
10 | < 100 | > 1000 | C[C@@H]1COC[C@H](C)N1Cc1ccc(-c2cc(C(N)=O)c3ncnc(N[C@@H]4CNCCC4(F)F)c3n2)cc1 [Example 29, 4-[[(3R)-4,4-difluoropiperidin-3-yl]amino]-6-(4-[[(3R,5S)-3,5-dimethylmorpholin-4-yl]methyl]phenyl)pyrido[3,2-d]pyrimidine-8-carboxamide]
11 | < 100 | < 500 | NC(=O)c1cc(-c2ccc(CN3CCOCC3)cc2)nc2c(N[C@H]3CCCNC3)ncnc12 [Example 30, 6-[4-(morpholin-4-ylmethyl)phenyl]-4-[(3S)-piperidin-3-ylamino]pyrido[3,2-d]pyrimidine-8-carboxamide]
12 | < 100 | 500 to 1000 | NC(=O)c1cc(-c2ccc(OC(F)(F)F)cc2)nc2c(N[C@H]3CCCNC3)ncnc12 [Example 31, 4-[(3S)-piperidin-3-ylamino]-6-[4-(trifluoromethoxy)phenyl]pyrido[3,2-d]pyrimidine-8-carboxamide]
